Data taken from the supplement of paper PMC10307832.

How the values were obtained:
Test in all cases: relative viability (nuclei count vs DMSO), 5 days (fraction); higher = more cells survive
NCI-H1993 = tested on: NCI-H1993
Summary of the method: (§1)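 Lung cancer cell lines, seeded in 1536-well plates, were treated the following day by pin tool with a single drug or with five library-drug doses (not always all listed) in √10 steps on top of a fixed anchor-drug dose. Cells were fixed and nuclei stained in one step after 5 days, and nuclei were counted. Relative viability is the nuclei count for treated wells divided by that for vehicle wells, reported as medians of duplicate plates.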

NCI-H596 = tested on: NCI-H596
Summary of the method: as §1

NCI-H2085 = tested on: NCI-H2085
Summary of the method: as §1

HCC-366 = tested on: HCC-366
Summary of the method: as §1

NCI-H1648 = tested on: NCI-H1648
Summary of the method: as §1

NCI-H2405 = tested on: NCI-H2405
Summary of the method: as §1

NCI-H1734 = tested on: NCI-H1734
Summary of the method: as §1

A549 = tested on: A549
Summary of the method: as §1

CAL-12T = tested on: CAL-12T
Summary of the method: as §1

IA-LM = tested on: IA-LM
Summary of the method: as §1

NCI-H1703 = tested on: NCI-H1703
Summary of the method: as §1

EBC-1 = tested on: EBC-1
Summary of the method: as §1

Calu-6 = tested on: Calu-6
Summary of the method: as §1

NCI-H1299 = tested on: NCI-H1299
Summary of the method: as §1

COCC1(CO)C(=O)C2CCN1CC2 (stereo not given) [PRIMA-1MET] + Nc1ncn([C@H]2C[C@H](O)[C@@H](CO)O2)c(=O)n1 [Decitabine] (partner 2 µM)
relative viability (NCI-H1993; first compound 0.2 µM): 0.57 | relative viability (NCI-H1993; first compound 2 µM): 0.57 | relative viability (NCI-H1993; first compound 6.325 µM): 0.731 | relative viability (NCI-H1993; first compound 20 µM): 0.564 | relative viability (NCI-H596; first compound 0.2 µM): 1.09 | relative viability (NCI-H596; first compound 0.6325 µM): 0.855 | relative viability (NCI-H596; first compound 2 µM): 0.989 | relative viability (NCI-H596; first compound 6.325 µM): 1.07 | relative viability (NCI-H596; first compound 20 µM): 0.655 | relative viability (NCI-H2085; first compound 0.2 µM): 0.59 | relative viability (NCI-H2085; first compound 0.6325 µM): 0.459 | relative viability (NCI-H2085; first compound 2 µM): 0.526 | relative viability (NCI-H2085; first compound 6.325 µM): 0.526 | relative viability (NCI-H2085; first compound 20 µM): 0.198 | relative viability (HCC-366; first compound 0.2 µM): 0.325 | relative viability (HCC-366; first compound 0.6325 µM): 0.12 | relative viability (HCC-366; first compound 2 µM): 0.294 | relative viability (HCC-366; first compound 6.325 µM): 0.423 | relative viability (HCC-366; first compound 20 µM): 0.0554 | relative viability (NCI-H1648; first compound 0.2 µM): 0.433 | relative viability (NCI-H1648; first compound 2 µM): 0.451 | relative viability (NCI-H1648; first compound 20 µM): 0.475 | relative viability (NCI-H2405; first compound 0.2 µM): 0.593 | relative viability (NCI-H2405; first compound 0.6325 µM): 0.508 | relative viability (NCI-H2405; first compound 6.325 µM): 0.645 | relative viability (NCI-H2405; first compound 20 µM): 0.296 | relative viability (NCI-H1734; first compound 0.2 µM): 0.481 | relative viability (NCI-H1734; first compound 0.6325 µM): 0.289 | relative viability (NCI-H1734; first compound 2 µM): 0.456 | relative viability (NCI-H1734; first compound 6.325 µM): 0.474 | relative viability (NCI-H1734; first compound 20 µM): 0.0575 | relative viability (A549; first compound 0.2 µM): 0.284 | relative viability (A549; first compound 2 µM): 0.253 | relative viability (A549; first compound 6.325 µM): 0.25 | relative viability (A549; first compound 20 µM): 0.237

COCC1(CO)C(=O)C2CCN1CC2 (stereo not given) [PRIMA-1MET] + O=C(CCCCCCC(=O)Nc1ccccc1)NO [Vorinostat] (partner 1 µM)
relative viability (NCI-H1993; first compound 0.2 µM): 0.743 | relative viability (NCI-H1993; first compound 2 µM): 0.629 | relative viability (NCI-H1993; first compound 6.325 µM): 0.651 | relative viability (NCI-H1993; first compound 20 µM): 0.619 | relative viability (NCI-H596; first compound 0.2 µM): 0.694 | relative viability (NCI-H596; first compound 0.6325 µM): 0.589 | relative viability (NCI-H596; first compound 2 µM): 0.421 | relative viability (NCI-H596; first compound 6.325 µM): 0.732 | relative viability (NCI-H596; first compound 20 µM): 0.147 | relative viability (CAL-12T; first compound 0.2 µM): 0.78 | relative viability (CAL-12T; first compound 0.6325 µM): 0.694 | relative viability (CAL-12T; first compound 2 µM): 0.637 | relative viability (CAL-12T; first compound 6.325 µM): 0.589 | relative viability (CAL-12T; first compound 20 µM): 0.0657 | relative viability (NCI-H2085; first compound 0.2 µM): 1.06 | relative viability (NCI-H2085; first compound 0.6325 µM): 0.776 | relative viability (NCI-H2085; first compound 2 µM): 0.706 | relative viability (NCI-H2085; first compound 6.325 µM): 0.798 | relative viability (NCI-H2085; first compound 20 µM): 0.154 | relative viability (HCC-366; first compound 0.2 µM): 0.596 | relative viability (HCC-366; first compound 0.6325 µM): 0.252 | relative viability (HCC-366; first compound 2 µM): 0.249 | relative viability (HCC-366; first compound 6.325 µM): 0.336 | relative viability (HCC-366; first compound 20 µM): 0.0291 | relative viability (NCI-H1648; first compound 0.2 µM): 0.668 | relative viability (NCI-H1648; first compound 2 µM): 0.445 | relative viability (NCI-H1648; first compound 20 µM): 0.621 | relative viability (NCI-H2405; first compound 0.2 µM): 1.03 | relative viability (NCI-H2405; first compound 0.6325 µM): 0.945 | relative viability (NCI-H2405; first compound 6.325 µM): 0.934 | relative viability (NCI-H2405; first compound 20 µM): 0.106 | relative viability (NCI-H1734; first compound 0.2 µM): 1.08 | relative viability (NCI-H1734; first compound 0.6325 µM): 0.718 | relative viability (NCI-H1734; first compound 2 µM): 0.777 | relative viability (NCI-H1734; first compound 6.325 µM): 0.536 | relative viability (NCI-H1734; first compound 20 µM): 0.0676 | relative viability (IA-LM; first compound 0.2 µM): 0.971 | relative viability (IA-LM; first compound 0.6325 µM): 0.74 | relative viability (IA-LM; first compound 2 µM): 0.926 | relative viability (IA-LM; first compound 6.325 µM): 1.06 | relative viability (IA-LM; first compound 20 µM): 1.05

COCC1(CO)C(=O)C2CCN1CC2 (stereo not given) [PRIMA-1MET] + O=C(c1cc(Cc2n[nH]c(=O)c3ccccc23)ccc1F)N1CCN(C(=O)C2CC2)CC1 [Olaparib] (partner 8 µM)
relative viability (NCI-H1993; first compound 0.2 µM): 1.21 | relative viability (NCI-H1993; first compound 2 µM): 0.95 | relative viability (NCI-H1993; first compound 6.325 µM): 1.07 | relative viability (NCI-H1993; first compound 20 µM): 0.896 | relative viability (NCI-H596; first compound 0.2 µM): 0.718 | relative viability (NCI-H596; first compound 0.6325 µM): 0.652 | relative viability (NCI-H596; first compound 2 µM): 0.6 | relative viability (NCI-H596; first compound 6.325 µM): 0.735 | relative viability (NCI-H596; first compound 20 µM): 0.238 | relative viability (CAL-12T; first compound 0.2 µM): 0.806 | relative viability (CAL-12T; first compound 0.6325 µM): 0.747 | relative viability (CAL-12T; first compound 2 µM): 0.639 | relative viability (CAL-12T; first compound 6.325 µM): 0.445 | relative viability (CAL-12T; first compound 20 µM): 0.696 | relative viability (NCI-H2085; first compound 0.2 µM): 0.837 | relative viability (NCI-H2085; first compound 0.6325 µM): 0.817 | relative viability (NCI-H2085; first compound 2 µM): 0.805 | relative viability (NCI-H2085; first compound 6.325 µM): 0.862 | relative viability (NCI-H2085; first compound 20 µM): 0.191 | relative viability (NCI-H1703; first compound 0.2 µM): 0.422 | relative viability (NCI-H1703; first compound 6.325 µM): 0.769 | relative viability (NCI-H1703; first compound 20 µM): 0.0733 | relative viability (HCC-366; first compound 0.2 µM): 0.396 | relative viability (HCC-366; first compound 0.6325 µM): 0.346 | relative viability (HCC-366; first compound 2 µM): 0.328 | relative viability (HCC-366; first compound 6.325 µM): 0.34 | relative viability (HCC-366; first compound 20 µM): 0.0865 | relative viability (EBC-1; first compound 0.2 µM): 0.692 | relative viability (EBC-1; first compound 0.6325 µM): 0.712 | relative viability (EBC-1; first compound 2 µM): 0.701 | relative viability (EBC-1; first compound 6.325 µM): 0.828 | relative viability (EBC-1; first compound 20 µM): 0.7 | relative viability (Calu-6; first compound 0.2 µM): 0.547 | relative viability (Calu-6; first compound 0.6325 µM): 0.588 | relative viability (Calu-6; first compound 2 µM): 0.594 | relative viability (Calu-6; first compound 6.325 µM): 0.516 | relative viability (Calu-6; first compound 20 µM): 0.443 | relative viability (NCI-H1648; first compound 0.2 µM): 0.747 | relative viability (NCI-H1648; first compound 2 µM): 1.43 | relative viability (NCI-H1648; first compound 20 µM): 0.912 | relative viability (NCI-H2405; first compound 0.2 µM): 0.947 | relative viability (NCI-H2405; first compound 0.6325 µM): 0.986 | relative viability (NCI-H2405; first compound 6.325 µM): 0.88 | relative viability (NCI-H2405; first compound 20 µM): 0.167 | relative viability (NCI-H1734; first compound 0.2 µM): 0.711 | relative viability (NCI-H1734; first compound 0.6325 µM): 0.627 | relative viability (NCI-H1734; first compound 2 µM): 0.581 | relative viability (NCI-H1734; first compound 6.325 µM): 0.631 | relative viability (NCI-H1734; first compound 20 µM): 0.0357 | relative viability (NCI-H1299; first compound 0.2 µM): 0.984 | relative viability (NCI-H1299; first compound 0.6325 µM): 0.921 | relative viability (NCI-H1299; first compound 2 µM): 0.99 | relative viability (NCI-H1299; first compound 6.325 µM): 0.959 | relative viability (NCI-H1299; first compound 20 µM): 0.984 | relative viability (A549; first compound 0.2 µM): 0.528 | relative viability (A549; first compound 0.6325 µM): 0.365 | relative viability (A549; first compound 2 µM): 0.379 | relative viability (A549; first compound 6.325 µM): 0.371 | relative viability (A549; first compound 20 µM): 0.266 | relative viability (IA-LM; first compound 0.2 µM): 0.867 | relative viability (IA-LM; first compound 0.6325 µM): 0.676 | relative viability (IA-LM; first compound 2 µM): 0.905 | relative viability (IA-LM; first compound 6.325 µM): 0.819 | relative viability (IA-LM; first compound 20 µM): 0.788
